Test results published in the RepoRT retention time repository (doi:10.1021/ac300829f).

test: RP, Thermo Scientific Hypersil GOLD, 150 × 2.1 mm, 1.9 µm, 0.5 mL/min, estimated dead time 0.66 min; A: water + 0.1% formic acid, pH 3; B: acetonitrile + 0.1% formic acid, pH 3; gradient (min/%B) 0/0 2/0 13/100 15.5/100 19/0; details: stereoisomer not certain

LC retention time [min]	SMILES
1.1	CN1C(=O)C(O)CC1c1cccnc1 (stereo not drawn) [trans-3-hydroxycotinine]
4.7	Cn1c(=O)c2[nH]c(=O)[nH]c2n(C)c1=O [1,3-dimethyluric acid]
5	Cn1c(=O)[nH]c2[nH]c(=O)n(C)c2c1=O [1,7-dimethyluric acid]
4.6	CCC(C)(O)C(=O)O (stereo not drawn) [2-hydroxy-2-methylbutyric acid (2-hydroxyisovaleric acid)]
1	C[N+]1(C)CCCC1C(=O)[O-] (stereo not drawn) [stachydrine (proline betaine)]
0.9	CN1CC(=O)NC1=N [creatinine]
1.1	O=C(O)c1cccnc1 [nicotinic acid]
4.8	O=C(O)CC(Nc1ncnc2c1ncn2C1OC(CO)C(O)C1O)C(=O)O (stereo not drawn) [succinyladenosine]
1.1	Nc1ccc(O)cc1 [4-aminophenol]
1.1	Nc1ccnc(=O)[nH]1 [cytosine]
9.2	CC(CCC(=O)O)C1CCC2C3C(O)CC4CC(O)CCC4(C)C3CC(O)C12C (stereo not drawn) [cholic acid]
6	CC(C)(CCC(=O)O)C(=O)O [2,2-dimethylglutaricacid]
4.3	O=c1[nH]c(=O)c2ncn(C3OC(CO)C(O)C3O)c2[nH]1 (stereo not drawn) [xanthosine]
0.9	O=C(O)C(O)C(O)C(O)C(O)CO (stereo not drawn) [gluconic acid]
1.1	O=c1[nH]cnc2nc[nH]c12 [hypoxanthine]
7	O=C(O)CNC(=O)C=Cc1ccccc1 [cinnamoylglycine]
1.1	Cc1ncc(C=O)c(CO)c1O [pyridoxal  isomer]
1	CN(CC(=O)O)C(=N)N [creatine]
4.4	CNc1nc2c(ncn2C2OC(CO)C(O)C2O)c(=O)[nH]1 (stereo not drawn) [N2-methylguanosine]
8.1	CCCCCCCCC(=O)OC(CC(=O)[O-])C[N+](C)(C)C (stereo not drawn) [nonanoylcarnitine]
4.2	CC(=O)Nc1ccc(OC2OC(C(=O)O)C(O)C(O)C2O)cc1 (stereo not drawn) [acetaminophene glucuronide]
6.7	CCC(CCCCCC(=O)O)C(=O)O (stereo not drawn) [2-ethylsuberic acid]
5.7	Cc1cc2c(cc1C)N(CC(O)C(O)C(O)COP(=O)(O)O)c1[nH]c(=O)[nH]c(=O)c1N2 (stereo not drawn) [FMNH]
0.8	NCCCCNCCCN [spermidine]

LC retention time [min]	SMILES
6.3	COC(=O)CCCCC(=O)O [mono-methyl-adipate]
4.6	CC(=O)Nc1ccn(C2OC(CO)C(O)C2O)c(=O)n1 (stereo not drawn) [N4-acetylcytidine]
0.9	O=CCC(O)C(O)CO (stereo not drawn) [deoxyribose]
5.7	CC(C)CC(=O)C(=O)O [4-methyl-2-oxovaleric acid (ketoleucine)]
1	Cc1cnc(=O)[nH]c1N [5-methylcytosine]
9.6	CC12CCC(=O)C=C1CCC1C2CCC2(C)C(C(=O)CO)CCC12 (stereo not drawn) [deoxycorticosterone]
1.1	[NH3+]CC(=O)N1CCCC1C(=O)[O-] (stereo not drawn) [Gly-Pro]
0.9	NC(CO)C(=O)O (stereo not drawn) [serine]
0.9	C[n+]1cccc(C(=O)[O-])c1 [trigonelline]
1.1	CSCC(O)C(O)C(O)C=O (stereo not drawn) [5-methylthioribose]
12	CCCCCCCCC=CCCCCCCCC(=O)OCC(O)COP(=O)([O-])OCC[N+](C)(C)C (stereo not drawn) [1-oleoylglycerophosphocholine LysoPC(18:1)]
5.3	C[N+](C)(C)CC(CC(=O)[O-])OC(=O)CCCCC(=O)O (stereo not drawn) [adipoylcarnitine]
1.8	CC(=O)NC(C)C(=O)O (stereo not drawn) [acetylalanine]
4.4	NC(Cc1ccccc1)C(=O)O (stereo not drawn) [phenylalanine]
5.6	Cn1c(=O)c2c(ncn2C)n(C)c1=O [caffeine]
6.1	NC(=O)CCC(NC(=O)Cc1c[nH]c2ccccc12)C(=O)O (stereo not drawn) [indoleacetyl glutamine]
1.2	O=c1cc[nH]c(=O)[nH]1 [uracil]
5.8	O=C(O)CNC(=O)c1ccccc1 [hippuric acid]
1.1	Nc1nc2nc[nH]c2c(=O)[nH]1 [guanine]
1.1	CSCCC(N)C(=O)O (stereo not drawn) [methionine]
6.1	CCCCCCCC(C(=O)O)C(=O)O [heptylmalonic acid]
4.1	CC(C)C(=O)NCC(=O)O [N-isobutyrylglycine]
1.1	Nc1ncnc2c1ncn2C1OC(CO)C(O)C1O (stereo not drawn) [adenosine]
0.9	CC(=O)NCCCNCCCCN [N1-acetylspermidine]

LC retention time [min]	SMILES
5.7	O=C(O)Cc1c[nH]c2ccc(O)cc12 [5-hydroxyindoleacetic acid]
1	Nc1ncnc2c1ncn2C1OC2COP(=O)(O)OC2C1O (stereo not drawn) [cyclic AMP]
1.1	NC(CCCC(=O)O)C(=O)O (stereo not drawn) [2-aminoadipic acid]
1.1	CC(=O)NCCCCN [N-acetylputrescine]
5.2	CC=C(C)C(=O)NCC(=O)O [tiglylglycine]
6.6	CCCCCC(=O)OC(CC(=O)[O-])C[N+](C)(C)C (stereo not drawn) [hexanoylcarnitine]
5.2	O=C(O)c1cc(=O)c2cccc(O)c2[nH]1 [xanthurenic acid]
1.1	CC(=O)NC(CC(=O)O)C(=O)O (stereo not drawn) [N-acetylaspartic acid]
5.1	OCc1cccc(O)c1 [3-hydroxybenzyl alcohol]
1.1	CC(=O)NCCC(=O)NC(Cc1cnc[nH]1)C(=O)O (stereo not drawn) [N-acetylcarnosine]
0.9	NC(=O)CCC(N)C(=O)O (stereo not drawn) [glutamine]
1.1	O=C(O)C1CCCN1 (stereo not drawn) [proline]
4.9	CC(=O)Nc1ccc(O)cc1 [acetaminophen]
0.8	N[C@@H](Cc1c[nH]c2ccccc12)C(=O)O [L-tryptophan]
1.1	NC(Cc1ccc(O)cc1)C(=O)O (stereo not drawn) [tyrosine]
5.6	Cc1ncc(CO)c(C(=O)O)c1O [4-pyridoxic acid]
1	[NH3+]CCCCCC(=O)[O-] [6-aminocaproic acid]
5.5	O=C(C=Cc1ccc(O)c(O)c1)OC1CC(O)(C(=O)O)CC(O)C1O (stereo not drawn) [chlorogenic acid]
7.6	O=C(O)CCCCCCCCC(=O)O [sebacic acid]
4.2	CC(C)(O)CC(=O)O [3-hydroxy-3-methylbutyric acid (3-hydroxyisovaleric acid)]
0.9	NCCS(=O)(=O)O [taurine]
3.6	CCC(=O)OC(CC(=O)[O-])C[N+](C)(C)C (stereo not drawn) [propionylcarnitine]
7.6	CCOC(=O)c1ccccc1C(=O)O [monoethyl phthalate]
0.9	NC(N)=NCCCC(N)C(=O)O (stereo not drawn) [arginine]

LC retention time [min]	SMILES
1.04	O=C(O)CC(=O)O [malonic acid]
9	CCCCCCCCCC(=O)OC(CC(=O)[O-])C[N+](C)(C)C (stereo not drawn) [decanoylcarnitine]
0.8	NC(Cc1cnc[nH]1)C(=O)O (stereo not drawn) [histidine]
4.5	OCC1NCC(O)C(O)C1OC1OC(CO)C(O)C(O)C1O (stereo not drawn) [glucopyranosylmoranoline]
5.7	Cc1cc2nc3c(=O)[nH]c(=O)nc-3n(CC(O)C(O)C(O)CO)c2cc1C (stereo not drawn) [riboflavin]
1.1	CN1CCCC1c1cccnc1 (stereo not drawn) [nicotine]
6.7	Cc1ccc(C(=O)NCC(=O)O)cc1 [4-methylhippuric acid (para-methylhippuric acid)]
4.8	CN(C)c1nc2c(ncn2C2OC(CO)C(O)C2O)c(=O)[nH]1 (stereo not drawn) [N,N-dimethylguanosine]
6.1	O=C(O)CNC(=O)c1cccc(O)c1 [m-hydroxyhippuric acid]
0.8	NCCc1cnc[nH]1 [histamine]
0.9	OCC1OC(O)C(O)C(O)C1O (stereo not drawn) [hexose]
6.5	O=C(O)CNC(=O)c1ccccc1O [o-hydroxyhippuric acid]
0.9	NC(N)=NCC(=O)O [guanidoacetic acid]
4.7	NCc1[nH]cc(CCC(=O)O)c1CC(=O)O [porphobilinogen]
4.9	O=C(O)CNC(=O)c1ccc(O)cc1 [p-hydroxyhippuric acid]
0.9	C[N+](C)(C)[O-] [trimethylamine oxide]
5.8	CC(=O)NCCc1c[nH]c2ccc(O)cc12 [N-acetyl-5-hydroxytryptamine (N-acetyl-serotonin)]
1.1	CC(C)CC(N)C(=O)O (stereo not drawn) [leucine]
6.6	CC(=O)NC(Cc1ccccc1)C(=O)O (stereo not drawn) [N-acetylphenylalanine]
1.1	O=C1CCNC(=O)N1 [5,6-dihydrouracil]
6.3	O=C(O)CNC(=O)C1=CCCCC1 [tetrahydrohippuric acid]
1.1	NC(=O)c1cccnc1 [nicotinamide]

SMILES	LC retention time [min]
CC12CCC(=O)C=C1CCC1C2CCC2(C)C(OC3OC(C(=O)O)C(O)C(O)C3O)CCC12 (stereo not drawn) [testosterone glucuronide]	7.9
NCCc1c[nH]c2ccccc12 [tryptamine]	5.7
CCCCCC=CCC=CCCCCCCCC(=O)OCC(O)COP(=O)([O-])OCC[N+](C)(C)C (stereo not drawn) [1-linoleoylglycerophosphocholine GPCho(18:2)]	11.2
CC12CCC3C(CCC4CC(OC5OC(C(=O)O)C(O)C(O)C5O)CCC43C)C1CCC2=O (stereo not drawn) [androsterone glucuronide]	8.6
